Patent publication US4479943A, “3-Demethoxyistamycin B, the 2"-N-formimidoyl derivative thereof and pharmaceutical composition containing same” (Zaidan Hojin Biseibutsu Kagaku Kenkyu Kai, priority 1982, dated 1984)
≈ marks a conversion by molar mass, not a printed value.

How the values were obtained:
Escherichia coli NIHJ = experiment: Antibacterial MIC, standard serial dilution; format: cell-based; conditions: nutrient agar, 37° C., 17 hours, as free base
[1] = tested on: Pseudomonas aeruginosa A3; experiment: Antibacterial MIC, standard serial dilution; format: cell-based; conditions: nutrient agar, 37° C., 17 hours, as free base
[2] = tested on: Escherichia coli K-12 ML1410; experiment: Antibacterial MIC, standard serial dilution; format: cell-based; conditions: nutrient agar, 37° C., 17 hours, as free base
[3] = tested on: Pseudomonas aeruginosa No. 12; experiment: Antibacterial MIC, standard serial dilution; format: cell-based; conditions: nutrient agar, 37° C., 17 hours, as free base
[4] = tested on: Shigella dysenteriae JS11910; experiment: Antibacterial MIC, standard serial dilution; format: cell-based; conditions: nutrient agar, 37° C., 17 hours, as free base
[5] = tested on: Klebsiella pneumoniae 22#3038; experiment: Antibacterial MIC, standard serial dilution; format: cell-based; conditions: nutrient agar, 37° C., 17 hours, as free base
[6] = tested on: Escherichia coli K-12 ML1630; experiment: Antibacterial MIC, standard serial dilution; format: cell-based; conditions: nutrient agar, 37° C., 17 hours, as free base
Proteus rettgeri GN311 = experiment: Antibacterial MIC, standard serial dilution; format: cell-based; conditions: nutrient agar, 37° C., 17 hours, as free base
Serratia sp. 4 = experiment: Antibacterial MIC, standard serial dilution; format: cell-based; conditions: nutrient agar, 37° C., 17 hours, as free base
[7] = tested on: Escherichia coli JR66/W677; experiment: Antibacterial MIC, standard serial dilution; format: cell-based; conditions: nutrient agar, 37° C., 17 hours, as free base
Escherichia coli JR225 = experiment: Antibacterial MIC, standard serial dilution; format: cell-based; conditions: nutrient agar, 37° C., 17 hours, as free base
[8] = tested on: Pseudomonas aeruginosa ROS 134/PU21; experiment: Antibacterial MIC, standard serial dilution; format: cell-based; conditions: nutrient agar, 37° C., 17 hours, as free base
[9] = tested on: Corynebacterium bovis 1810; experiment: Antibacterial MIC, standard serial dilution; format: cell-based; conditions: nutrient agar, 37° C., 17 hours, as free base
[10] = tested on: Escherichia coli K-12 C600 R135; experiment: Antibacterial MIC, standard serial dilution; format: cell-based; conditions: nutrient agar, 37° C., 17 hours, as free base
Salmonella typhi T-63 = experiment: Antibacterial MIC, standard serial dilution; format: cell-based; conditions: nutrient agar, 37° C., 17 hours, as free base
Providencia sp. Pv16 = experiment: Antibacterial MIC, standard serial dilution; format: cell-based; conditions: nutrient agar, 37° C., 17 hours, as free base
[11] = tested on: Escherichia coli K-12 LA290 R56; experiment: Antibacterial MIC, standard serial dilution; format: cell-based; conditions: nutrient agar, 37° C., 17 hours, as free base
Proteus vulgaris 0X19 = experiment: Antibacterial MIC, standard serial dilution; format: cell-based; conditions: nutrient agar, 37° C., 17 hours, as free base
[12] = tested on: Pseudomonas aeruginosa 21-75; experiment: Antibacterial MIC, standard serial dilution; format: cell-based; conditions: nutrient agar, 37° C., 17 hours, as free base
[13] = tested on: Pseudomonas aeruginosa TI-13; experiment: Antibacterial MIC, standard serial dilution; format: cell-based; conditions: nutrient agar, 37° C., 17 hours, as free base
[14] = tested on: Staphylococcus aureus Smith; experiment: Antibacterial MIC, standard serial dilution; format: cell-based; conditions: nutrient agar, 37° C., 17 hours, as free base
bacteria = conditions: in words; earlier work; cited from earlier work
[15] = tested on: Bacillus cereus ATCC 10702; experiment: Antibacterial MIC, standard serial dilution; format: cell-based; conditions: nutrient agar, 37° C., 17 hours, as free base
Escherichia coli K-12 = experiment: Antibacterial MIC, standard serial dilution; format: cell-based; conditions: nutrient agar, 37° C., 17 hours, as free base
Serratia sp. SOU = experiment: Antibacterial MIC, standard serial dilution; format: cell-based; conditions: nutrient agar, 37° C., 17 hours, as free base
[16] = tested on: Staphylococcus epidermidis 109; experiment: Antibacterial MIC, standard serial dilution; format: cell-based; conditions: nutrient agar, 37° C., 17 hours, as free base
[17] = tested on: Escherichia coli K-12 LA290 R55; experiment: Antibacterial MIC, standard serial dilution; format: cell-based; conditions: nutrient agar, 37° C., 17 hours, as free base
[18] = tested on: Pseudomonas aeruginosa 99; experiment: Antibacterial MIC, standard serial dilution; format: cell-based; conditions: nutrient agar, 37° C., 17 hours, as free base
Serratia marcescens = experiment: Antibacterial MIC, standard serial dilution; format: cell-based; conditions: nutrient agar, 37° C., 17 hours, as free base
[19] = tested on: Pseudomonas aeruginosa B-13; experiment: Antibacterial MIC, standard serial dilution; format: cell-based; conditions: nutrient agar, 37° C., 17 hours, as free base
[20] = tested on: Pseudomonas aeruginosa H9; experiment: Antibacterial MIC, standard serial dilution; format: cell-based; conditions: nutrient agar, 37° C., 17 hours, as free base
[21] = tested on: Klebsiella pneumoniae PCI602; experiment: Antibacterial MIC, standard serial dilution; format: cell-based; conditions: nutrient agar, 37° C., 17 hours, as free base
[22] = tested on: Pseudomonas aeruginosa GN315; experiment: Antibacterial MIC, standard serial dilution; format: cell-based; conditions: nutrient agar, 37° C., 17 hours, as free base
[23] = tested on: Escherichia coli K-12 ML1629; experiment: Antibacterial MIC, standard serial dilution; format: cell-based; conditions: nutrient agar, 37° C., 17 hours, as free base
[24] = tested on: Pseudomonas maltophilia GN 907; experiment: Antibacterial MIC, standard serial dilution; format: cell-based; conditions: nutrient agar, 37° C., 17 hours, as free base
[25] = tested on: Bacillus subtilis PCI 219; experiment: Antibacterial MIC, standard serial dilution; format: cell-based; conditions: nutrient agar, 37° C., 17 hours, as free base
[26] = tested on: Micrococcus flavus FDA 16; experiment: Antibacterial MIC, standard serial dilution; format: cell-based; conditions: nutrient agar, 37° C., 17 hours, as free base
Bacillus anthracis = format: cell-based; conditions: nutrient agar, 37° C., 17 hours, as free base
Proteus rettgeri GN466 = experiment: Antibacterial MIC, standard serial dilution; format: cell-based; conditions: nutrient agar, 37° C., 17 hours, as free base
[27] = tested on: Mycobacterium smegmatis ATCC 607; experiment: Antibacterial MIC, standard serial dilution; format: cell-based; conditions: nutrient agar, 37° C., 17 hours, as free base
[28] = tested on: Escherichia coli K-12 J5R11-2; experiment: Antibacterial MIC, standard serial dilution; format: cell-based; conditions: nutrient agar, 37° C., 17 hours, as free base
[29] = tested on: Pseudomonas aeruginosa PST1; experiment: Antibacterial MIC, standard serial dilution; format: cell-based; conditions: nutrient agar, 37° C., 17 hours, as free base
[30] = tested on: Pseudomonas aeruginosa H11; experiment: Antibacterial MIC, standard serial dilution; format: cell-based; conditions: nutrient agar, 37° C., 17 hours, as free base
Sarcina lutea PCI 1001 = experiment: Antibacterial MIC, standard serial dilution; format: cell-based; conditions: nutrient agar, 37° C., 17 hours, as free base
[31] = tested on: Escherichia coli K-12 R388; experiment: Antibacterial MIC, standard serial dilution; format: cell-based; conditions: nutrient agar, 37° C., 17 hours, as free base
Providencia sp. 2991 = experiment: Antibacterial MIC, standard serial dilution; format: cell-based; conditions: nutrient agar, 37° C., 17 hours, as free base
[32] = tested on: Staphylococcus aureus FDA 209P; experiment: Antibacterial MIC, standard serial dilution; format: cell-based; conditions: nutrient agar, 37° C., 17 hours, as free base
[33] = tested on: Salmonella enteritidis 1891; experiment: Antibacterial MIC, standard serial dilution; format: cell-based; conditions: nutrient agar, 37° C., 17 hours, as free base
[34] = tested on: Bacillus subtilis NRRL B-558; experiment: Antibacterial MIC, standard serial dilution; format: cell-based; conditions: nutrient agar, 37° C., 17 hours, as free base
[35] = tested on: Pseudomonas aeruginosa K-Ps 102; experiment: Antibacterial MIC, standard serial dilution; format: cell-based; conditions: nutrient agar, 37° C., 17 hours, as free base
Escherichia coli W677 = experiment: Antibacterial MIC, standard serial dilution; format: cell-based; conditions: nutrient agar, 37° C., 17 hours, as free base
[36] = tested on: Staphylococcus aureus Ap01; experiment: Antibacterial MIC, standard serial dilution; format: cell-based; conditions: nutrient agar, 37° C., 17 hours, as free base

**Q.** With `CNCC1CCC(N)C(OC2C(N)CC(O)C(N(C)C(=O)CN)C2O)O1` (stereo not shown) [Demethyl ista B, 3-O-demethylistamycin B] as the compound, how does the MIC (Escherichia coli NIHJ) read?
**A.** 0.39 mg/L (≈ 1.04 µM)

**Q.** What about the MIC [1] of the same compound?
**A.** 0.20 mg/L (≈ 0.533 µM)

**Q.** And the MIC [2]?
**A.** 3.13 mg/L (≈ 8.34 µM)

**Q.** And the MIC [3]?
**A.** 12.5 mg/L (≈ 33.3 µM)

**Q.** And the MIC [4]?
**A.** 3.13 mg/L (≈ 8.34 µM)

**Q.** And the MIC [5]?
**A.** 3.13 mg/L (≈ 8.34 µM)

**Q.** And the MIC [6]?
**A.** 3.13 mg/L (≈ 8.34 µM)

**Q.** What about the MIC (Proteus rettgeri GN311) of the same compound?
**A.** 0.39 mg/L (≈ 1.04 µM)

**Q.** And the MIC (Serratia sp. 4)?
**A.** 12.5 mg/L (≈ 33.3 µM)

**Q.** What about the MIC [7] of the same compound?
**A.** 1.56 mg/L (≈ 4.15 µM)

**Q.** And the MIC (Escherichia coli JR225)?
**A.** 0.78 mg/L (≈ 2.08 µM)

**Q.** What about the MIC [8] of the same compound?
**A.** 50 mg/L (≈ 133 µM)

**Q.** And the MIC [9]?
**A.** 0.39 mg/L (≈ 1.04 µM)

**Q.** And the MIC [10]?
**A.** 1.56 mg/L (≈ 4.15 µM)

**Q.** What about the MIC (Salmonella typhi T-63) of the same compound?
**A.** 0.39 mg/L (≈ 1.04 µM)

**Q.** What about the MIC (Providencia sp. Pv16) of the same compound?
**A.** 0.78 mg/L (≈ 2.08 µM)

**Q.** And the MIC [11]?
**A.** 0.78 mg/L (≈ 2.08 µM)

**Q.** What about the MIC (Proteus vulgaris 0X19) of the same compound?
**A.** 0.39 mg/L (≈ 1.04 µM)

**Q.** What about the MIC [12] of the same compound?
**A.** 25 mg/L (≈ 66.6 µM)

**Q.** And the MIC [13]?
**A.** 6.25 mg/L (≈ 16.6 µM)

**Q.** And the MIC [14]?
**A.** 0.39 mg/L (≈ 1.04 µM)

**Q.** And the antibacterial activity (bacteria)?
**A.** active not only against Pseudomonas aeruginosa but also against a variety of resistant bacteria

**Q.** And the MIC [15]?
**A.** 1.56 mg/L (≈ 4.15 µM)

**Q.** What about the MIC (Escherichia coli K-12) of the same compound?
**A.** 0.78 mg/L (≈ 2.08 µM)

**Q.** And the MIC (Serratia sp. SOU)?
**A.** 6.25 mg/L (≈ 16.6 µM)

**Q.** And the MIC [16]?
**A.** 0.39 mg/L (≈ 1.04 µM)

**Q.** And the MIC [17]?
**A.** 0.78 mg/L (≈ 2.08 µM)

**Q.** What about the MIC [18] of the same compound?
**A.** 25 mg/L (≈ 66.6 µM)

**Q.** And the MIC (Serratia marcescens)?
**A.** 1.56 mg/L (≈ 4.15 µM)

**Q.** What about the MIC [19] of the same compound?
**A.** 25 mg/L (≈ 66.6 µM)

**Q.** What about the MIC [20] of the same compound?
**A.** 12.5 mg/L (≈ 33.3 µM)

**Q.** And the MIC [21]?
**A.** 1.56 mg/L (≈ 4.15 µM)

**Q.** And the MIC [22]?
**A.** 6.25 mg/L (≈ 16.6 µM)

**Q.** What about the MIC [23] of the same compound?
**A.** 1.56 mg/L (≈ 4.15 µM)

**Q.** What about the MIC [24] of the same compound?
**A.** 100 mg/L (≈ 266 µM)

**Q.** And the MIC [25]?
**A.** 0.39 mg/L (≈ 1.04 µM)

**Q.** And the MIC [26]?
**A.** 3.13 mg/L (≈ 8.34 µM)

**Q.** What about the MIC (Bacillus anthracis) of the same compound?
**A.** 0.78 mg/L (≈ 2.08 µM)

**Q.** And the MIC (Proteus rettgeri GN466)?
**A.** 0.39 mg/L (≈ 1.04 µM)

**Q.** What about the MIC [27] of the same compound?
**A.** 0.78 mg/L (≈ 2.08 µM)

**Q.** And the MIC [28]?
**A.** 1.56 mg/L (≈ 4.15 µM)

**Q.** What about the MIC [29] of the same compound?
**A.** 12.5 mg/L (≈ 33.3 µM)

**Q.** And the MIC [30]?
**A.** 25 mg/L (≈ 66.6 µM)

**Q.** And the MIC (Sarcina lutea PCI 1001)?
**A.** 0.39 mg/L (≈ 1.04 µM)

**Q.** What about the MIC [31] of the same compound?
**A.** 0.78 mg/L (≈ 2.08 µM)

**Q.** What about the MIC (Providencia sp. 2991) of the same compound?
**A.** 1.56 mg/L (≈ 4.15 µM)

**Q.** And the MIC [32]?
**A.** 0.39 mg/L (≈ 1.04 µM)

**Q.** And the MIC [33]?
**A.** 1.56 mg/L (≈ 4.15 µM)

**Q.** What about the MIC [34] of the same compound?
**A.** 0.39 mg/L (≈ 1.04 µM)

**Q.** What about the MIC [35] of the same compound?
**A.** 6.25 mg/L (≈ 16.6 µM)

**Q.** And the MIC (Escherichia coli W677)?
**A.** 0.78 mg/L (≈ 2.08 µM)

**Q.** And the MIC [36]?
**A.** 0.39 mg/L (≈ 1.04 µM)
